We go through five compounds from article PMC7781311 (bioRxiv, 2021).

The structures appear in SMILES notation. pIC50: −log10 of the molar value. Where two headings read alike, the source gives them in different places.

For one series, the system named is Calu3 cells. Conditions: same protocol without PP, ATP content.
Series [1] relates to SARS-CoV-2-S pseudotyped particles (PP). In kind it is cell-based. The note with it: Calu-3 cells.
The nature of the next series: in vitro. The note with it: human.
The target of another series is TMPRSS2 (Homo sapiens, UniProt O15393). Kind of series: TMPRSS2 biochemical. Conditions: enzyme assay, maximal efficacy.
Sequence of TMPRSS2 (O15393 whole entry): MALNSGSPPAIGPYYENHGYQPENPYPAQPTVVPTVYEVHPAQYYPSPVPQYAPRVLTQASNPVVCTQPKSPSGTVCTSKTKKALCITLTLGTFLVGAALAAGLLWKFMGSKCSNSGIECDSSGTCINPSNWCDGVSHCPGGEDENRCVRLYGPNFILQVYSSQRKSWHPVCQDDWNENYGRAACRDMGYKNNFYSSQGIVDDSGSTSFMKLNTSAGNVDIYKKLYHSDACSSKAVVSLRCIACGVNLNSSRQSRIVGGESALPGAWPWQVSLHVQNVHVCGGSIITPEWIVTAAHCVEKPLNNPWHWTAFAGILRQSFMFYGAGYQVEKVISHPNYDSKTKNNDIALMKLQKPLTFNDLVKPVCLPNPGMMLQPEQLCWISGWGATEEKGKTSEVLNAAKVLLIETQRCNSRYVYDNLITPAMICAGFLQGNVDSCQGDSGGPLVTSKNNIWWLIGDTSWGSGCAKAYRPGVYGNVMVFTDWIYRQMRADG

In the case of `CCOC(=O)c1ccc(OC(=O)CCCCCNC(=N)N)cc1` [NCGC00025297, Gabexate], the “Calu3 cytotoxicity Efficacy” value in the series on Calu3 cells came out at 0%. For the same compound, the “Activity in the PP entry assay (in words)” value (“Activity” for short) in series [1] (listed as Gabexate) was “inactive”; in series [1] (listed as gabexate), “did not exhibit activity”.

For `COC(=O)[C@H](Cc1cccc(C(=N)N)c1)[C@@H](C)NC(=O)c1ccc(-c2cc[n+]([O-])cc2)cc1` [NCGC00378763, Otamixaban], the “Calu3 cytotoxicity Efficacy” value in the series on Calu3 cells worked out at 0%. Also, the “Activity” value in series [1] was “efficient activity”.

As for `N=C(N)c1ccc2cc(OC(=O)c3ccc(N=C(N)N)cc3)ccc2c1` [NCGC00160398, Nafamostat], the “Calu3 cytotoxicity Efficacy” value with Calu3 cells is recorded as 38.74%. Moreover, the “Activity” value in series [1] was “high potency and efficacy”. For the same compound, the pIC50 in “in vitro” was 4.80.

Take `CN(C)C(=O)COC(=O)Cc1ccc(OC(=O)c2ccc(NC(=N)N)cc2)cc1` [NCGC00167526, Camostat]: in the series with Calu3 cells, the “Calu3 cytotoxicity Efficacy” value was found to be 0%. In series [1], the “Activity” value was “high potency and efficacy”. Besides, the “TMPMSS2 Efficacy” value at TMPRSS2 is listed as 100%.

Consider `C=Cc1cc(C(=O)Nc2ccc(C(=N)N)cc2)c(-c2ccc(C(=O)NCC3CC3)nc2C(=O)O)cc1OC` [NCGC00522636, Avoralstat], for which the “Activity” value in series [1] is recorded as “comparable inhibition activity to camostat”.

In general, pIC50 refers to the IC50 on a negative log10 scale, so that one unit is a factor of ten. A lower pIC50 goes with a high IC50.
